{"source": "patent US10463671B2", "about": "“Combination therapy for treating cancer” (Epizyme, Inc., priority 2013, dated 2019)", "system": "glucocorticoid signaling genes in WSU-DLCL2 cells", "assay": "RT2 Glucocorticoid Signaling PCR array", "format": "cell-based", "conditions": "WSU cell line, 4 days", "protocol": "Gene expression was normalized to array's B2M and fold change compared to DMSO was calculated using the ΔΔCt method."}
{"smiles": "CCN(c1cc(-c2ccc(CN3CCOCC3)cc2)cc(C(=O)NCc2c(C)cc(C)[nH]c2=O)c1C)C1CCOCC1", "note": "[Compound 44]", "values": [{"measurement": "AK2 Ct Values", "value": 21.365}, {"measurement": "ANXA4 Ct Values", "value": 24.659}, {"measurement": "ARID5B Ct Values", "value": 26.126}, {"measurement": "BCL6 Ct Values", "value": 20.795}, {"measurement": "CEBPB Ct Values", "value": 26.770}, {"measurement": "CREB3L4 Ct Values", "value": 24.392}, {"measurement": "EHD3 Ct Values", "value": 24.270}, {"measurement": "IL6R Ct Values", "value": 33.814}, {"measurement": "MT2A Ct Values", "value": 23.499}, {"measurement": "NFKBIA Ct Values", "value": 23.807}, {"measurement": "PER2 Ct Values", "value": 24.837}, {"measurement": "POU2F2 Ct Values", "value": 22.678}, {"measurement": "RASA3 Ct Values", "value": 23.208}, {"measurement": "RHOB Ct Values", "value": 27.234}, {"measurement": "SLC22A5 Ct Values", "value": 26.640}, {"measurement": "SNTA1 Ct Values", "value": 24.181}, {"measurement": "SPSB1 Ct Values", "value": 26.952}, {"measurement": "TNFAIP3 Ct Values", "value": 26.903}, {"measurement": "TSC22D3 Ct Values", "value": 25.390}, {"measurement": "ZFP36 Ct Values", "value": 25.541}, {"measurement": "ZNF2B1 Ct Values", "value": 23.913}, {"measurement": "RPLP0 Ct Values", "setting": "housekeeping gene", "value": 15.681}, {"measurement": "HPRT1 ΔCT (B2M)", "setting": "housekeeping gene, normalized to B2M", "value": 3.108}, {"measurement": "AMPD3 ΔCT (B2M)", "setting": "normalized to B2M", "value": 7.477}, {"measurement": "GHRHR ΔCT (B2M)", "setting": "normalized to B2M", "value": 20.272}, {"measurement": "GOT1 ΔCT (B2M)", "setting": "normalized to B2M", "value": 4.142}, {"measurement": "SLC10A6 ΔCT (B2M)", "setting": "normalized to B2M", "value": 15.999}, {"measurement": "SLC19A2 ΔCT (B2M)", "setting": "normalized to B2M", "value": 6.440}, {"measurement": "SLC22A5 ΔCT (B2M)", "setting": "normalized to B2M", "value": 6.955}, {"measurement": "ZNF2B1 ΔCT (B2M)", "setting": "normalized to B2M", "value": 4.228}, {"measurement": "B2M ΔCT (B2M)", "setting": "normalizer gene, normalized to B2M", "value": 0.000}, {"measurement": "BCL6 ΔΔCT", "setting": "vs DMSO", "value": "−0.394"}, {"measurement": "CREB1 ΔΔCT", "setting": "vs DMSO", "value": 0.008}, {"measurement": "CREB3L4 ΔΔCT", "setting": "vs DMSO", "value": "−0.915"}, {"measurement": "CREB3 ΔΔCT", "setting": "vs DMSO", "value": "−0.085"}, {"measurement": "DDIT4 ΔΔCT", "setting": "vs DMSO", "value": "−0.060"}, {"measurement": "GOT1 ΔΔCT", "setting": "vs DMSO", "value": 0.708}, {"measurement": "HNRPLL ΔΔCT", "setting": "vs DMSO", "value": "−0.037"}, {"measurement": "IL1RN ΔΔCT", "setting": "vs DMSO", "value": "−4.453"}, {"measurement": "PDP1 ΔΔCT", "setting": "vs DMSO", "value": "−0.380"}, {"measurement": "PIK3R1 ΔΔCT", "setting": "vs DMSO", "value": 0.363}, {"measurement": "POU2F2 ΔΔCT", "setting": "vs DMSO", "value": "−0.680"}, {"measurement": "STAT5A ΔΔCT", "setting": "vs DMSO", "value": "−0.307"}, {"measurement": "USP54 ΔΔCT", "setting": "vs DMSO", "value": 0.023}, {"measurement": "VLDLR ΔΔCT", "setting": "vs DMSO", "value": 3.859}]}
